The source made the active and inactive calls. No cut-off for these calls is given here.
Legend:
WM 266-4 [1] = test: Growth inhibition of human WM266.4 cells preincubated for 6 hrs followed compound washout measured after 24 hrs by XTT assay; format: functional
NCI-H1299 = test: Growth inhibition of human NCI-H1299 cells preincubated for 6 hrs followed compound washout measured after 24 hrs by XTT assay; format: functional
WM 266-4 [2] = test: Growth inhibition of human WM266.4 cells at 1 uM incubated up to 96 hrs by XTT assay; format: functional, cell-based
WM 266-4 [3] = test: Growth inhibition of human WM266.4 cells at 5 uM incubated up to 72 hrs by XTT assay relative to control; format: functional; conditions: WM 266-4, 72 h, read-out: GI
[4] = Half life in pH 7.4 PBS buffer by LC-MS analysis; format: physicochemical
[5] = Half life in human WM266.4 cells by LC-MS analysis; format: ADME, cell-based, WM 266-4
WM 266-4 [6] = test: Induction of apoptosis in human WM266.4 cells assessed as late apoptotic cells at 10 uM after 2 hrs by Annexin V-FITC/propidium iodide staining based flow cytometry (reference value: 1.41%); format: functional
WM 266-4 [7] = test: Induction of apoptosis in human WM266.4 cells assessed as live cells at 10 uM after 8 hrs by Annexin V-FITC/propidium iodide staining based flow cytometry (reference value: 94.7%); format: functional
WM 266-4 [8] = test: Induction of apoptosis in human WM266.4 cells assessed as early apoptotic cells at 10 uM after 8 hrs by Annexin V-FITC/propidium iodide staining based flow cytometry (reference value: 2.64%); format: functional
WM 266-4 [9] = test: Induction of apoptosis in human WM266.4 cells assessed as necrotic cells at 10 uM after 8 hrs by Annexin V-FITC/propidium iodide staining based flow cytometry (reference value: 1.22%); format: functional
WM 266-4 [10] = test: Induction of apoptosis in human WM266.4 cells assessed as live cells at 10 uM after 24 hrs by Annexin V-FITC/propidium iodide staining based flow cytometry (reference value: 94.7%); format: functional
WM 266-4 [11] = test: Induction of apoptosis in human WM266.4 cells assessed as early apoptotic cells at 10 uM after 24 hrs by Annexin V-FITC/propidium iodide staining based flow cytometry (reference value: 2.64%); format: functional
WM 266-4 [12] = test: Induction of apoptosis in human WM266.4 cells assessed as late apoptotic cells at 10 uM after 24 hrs by Annexin V-FITC/propidium iodide staining based flow cytometry (reference value: 1.41%); format: functional
WM 266-4 [13] = test: Induction of apoptosis in human WM266.4 cells assessed as necrotic cells at 10 uM after 24 hrs by Annexin V-FITC/propidium iodide staining based flow cytometry (reference value: 1.22%); format: functional
WM 266-4 [14] = test: Induction of apoptosis in human WM266.4 cells assessed as necrotic cells at 25 uM after 2 hrs by Annexin V-FITC/propidium iodide staining based flow cytometry (reference value: 1.22%); format: functional
WM 266-4 [15] = test: Induction of apoptosis in human WM266.4 cells assessed as late apoptotic cells at 25 uM after 8 hrs by Annexin V-FITC/propidium iodide staining based flow cytometry (reference value: 1.41%); format: functional
WM 266-4 [16] = test: Induction of apoptosis in human WM266.4 cells assessed as live cells at 25 uM after 24 hrs by Annexin V-FITC/propidium iodide staining based flow cytometry (reference value: 94.7%); format: functional
WM 266-4 [17] = test: Induction of apoptosis in human WM266.4 cells assessed as late apoptotic cells at 25 uM after 24 hrs by Annexin V-FITC/propidium iodide staining based flow cytometry (reference value: 1.41%); format: functional
WM 266-4 [18] = test: Induction of apoptosis in human WM266.4 cells assessed as necrotic cells at 25 uM after 24 hrs by Annexin V-FITC/propidium iodide staining based flow cytometry (reference value: 1.22%); format: functional
WM 266-4 [19] = test: Cell cycle arrest in human WM266.4 cells assessed as accumulation at G1 phase at 10 uM after 2 hrs by propidium iodide staining based flow cytometry (reference value: 59%); format: functional
WM 266-4 [20] = test: Cell cycle arrest in human WM266.4 cells assessed as accumulation at G2 phase at 10 uM after 2 hrs by propidium iodide staining based flow cytometry (reference value: 11%); format: functional
WM 266-4 [21] = test: Cell cycle arrest in human WM266.4 cells assessed as accumulation at G1 phase at 10 uM after 8 hrs by propidium iodide staining based flow cytometry (reference value: 59%); format: functional
WM 266-4 [22] = test: Cell cycle arrest in human WM266.4 cells assessed as accumulation at G1 phase at 10 uM after 24 hrs by propidium iodide staining based flow cytometry (reference value: 59%); format: functional
[23] = molecular target: DNA topoisomerase 2-alpha (Homo sapiens) (UniProt P11388); test: Inhibition of human topoisomerase-2alpha assessed as reduction in enzyme-mediated decatenation at 100 uM using kinetoplast DNA as substrate after 25 mins by ethidium bromide staining based agarose gel electrophoresis method
WM 266-4 [24] = test: Antitumor activity against human WM266.4 cells xenografted in athymic Foxn1 nu mouse assessed as tumor growth inhibition at 10 mg/kg, ip administered once daily for 3 days followed by resting period of 4 days repeated for 4 weeks starting from 5 days post tumor inoculation measured on day 19; format: functional, organism-based

DNA topoisomerase 2-alpha (Homo sapiens), sequence (P11388 whole entry): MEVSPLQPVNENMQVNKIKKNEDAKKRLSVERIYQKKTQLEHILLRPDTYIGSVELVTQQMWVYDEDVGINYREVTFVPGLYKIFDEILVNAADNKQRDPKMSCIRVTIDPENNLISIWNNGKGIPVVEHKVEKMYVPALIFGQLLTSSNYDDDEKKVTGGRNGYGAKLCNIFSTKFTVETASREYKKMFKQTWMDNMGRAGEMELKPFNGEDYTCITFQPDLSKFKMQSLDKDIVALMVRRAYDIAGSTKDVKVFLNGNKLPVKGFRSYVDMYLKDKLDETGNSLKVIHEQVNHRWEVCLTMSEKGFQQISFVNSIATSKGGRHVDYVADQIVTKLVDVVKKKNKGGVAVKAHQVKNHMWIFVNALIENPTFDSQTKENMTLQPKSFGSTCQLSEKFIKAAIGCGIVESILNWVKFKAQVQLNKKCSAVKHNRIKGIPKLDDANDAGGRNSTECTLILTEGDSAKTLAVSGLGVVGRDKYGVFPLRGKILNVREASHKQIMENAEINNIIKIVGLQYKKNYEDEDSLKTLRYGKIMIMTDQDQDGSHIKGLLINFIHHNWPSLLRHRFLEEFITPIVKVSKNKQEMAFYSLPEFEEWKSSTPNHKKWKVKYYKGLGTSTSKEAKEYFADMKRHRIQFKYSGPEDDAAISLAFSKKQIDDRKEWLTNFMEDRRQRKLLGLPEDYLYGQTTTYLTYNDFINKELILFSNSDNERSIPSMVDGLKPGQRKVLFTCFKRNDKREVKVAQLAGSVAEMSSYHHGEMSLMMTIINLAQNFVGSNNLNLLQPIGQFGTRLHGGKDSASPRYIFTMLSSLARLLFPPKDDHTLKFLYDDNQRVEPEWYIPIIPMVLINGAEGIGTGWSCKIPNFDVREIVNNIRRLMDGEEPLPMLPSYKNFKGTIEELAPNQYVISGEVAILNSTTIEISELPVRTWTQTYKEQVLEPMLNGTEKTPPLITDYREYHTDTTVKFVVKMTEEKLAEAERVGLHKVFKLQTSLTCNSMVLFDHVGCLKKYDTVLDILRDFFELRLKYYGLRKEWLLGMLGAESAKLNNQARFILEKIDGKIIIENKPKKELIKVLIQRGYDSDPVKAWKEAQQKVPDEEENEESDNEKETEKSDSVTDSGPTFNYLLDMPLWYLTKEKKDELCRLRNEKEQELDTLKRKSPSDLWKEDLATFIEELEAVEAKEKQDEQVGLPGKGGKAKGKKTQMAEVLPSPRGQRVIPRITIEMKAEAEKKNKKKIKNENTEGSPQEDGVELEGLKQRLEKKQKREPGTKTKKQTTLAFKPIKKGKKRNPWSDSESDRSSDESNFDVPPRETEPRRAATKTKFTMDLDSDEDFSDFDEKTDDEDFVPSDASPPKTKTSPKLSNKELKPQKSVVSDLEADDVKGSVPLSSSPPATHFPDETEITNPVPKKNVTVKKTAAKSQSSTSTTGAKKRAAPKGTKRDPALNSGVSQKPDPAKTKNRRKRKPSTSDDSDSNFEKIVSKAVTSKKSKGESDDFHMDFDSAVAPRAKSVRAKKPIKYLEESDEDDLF

Question: With `CN(C)CCN1C(=O)c2cccc3cc(NC(=O)CCCc4ccc(N(CCCl)CCCl)cc4)cc(c23)C1=O.O=C(O)C(F)(F)F` as the molecule, how does the GI50 (WM 266-4 [1]) read?
Answer: The GI50 was 8.8 µM.

Question: What about the GI50 (NCI-H1299) of the same molecule?
Answer: Its GI50 is 6.8 µM.

Question: And the “growth inhibition (GI)” value (WM 266-4 [2])?
Answer: Its value is “inactive”.

Question: What about the inhibition of growth at 5 µM (WM 266-4 [3]) of the same molecule?
Answer: Its inhibition of growth at 5 µM is 100%.

Question: What about the half-life [4] of the same molecule?
Answer: Its half-life is 25 h.

Question: What about the half-life [5] of the same molecule?
Answer: The half-life was 25 h.

Question: And the Activity (WM 266-4 [6])?
Answer: Its Activity is 1.46%.

Question: What about the Activity (WM 266-4 [7]) of the same molecule?
Answer: The Activity was 82.4%.

Question: And the Activity (WM 266-4 [8])?
Answer: Its Activity is 6.66%.

Question: What about the Activity (WM 266-4 [9]) of the same molecule?
Answer: Its Activity is 9.33%.

Question: And the Activity (WM 266-4 [10])?
Answer: Its Activity is 84.5%.

Question: And the Activity (WM 266-4 [11])?
Answer: Its Activity is 3.9%.

Question: What about the Activity (WM 266-4 [12]) of the same molecule?
Answer: The Activity was 1.29%.

Question: And the Activity (WM 266-4 [13])?
Answer: Its Activity is 10.3%.

Question: And the Activity (WM 266-4 [14])?
Answer: The Activity was 16.4%.

Question: What about the Activity (WM 266-4 [15]) of the same molecule?
Answer: Its Activity is 5.47%.

Question: What about the Activity (WM 266-4 [16]) of the same molecule?
Answer: Its Activity is 40%.

Question: And the Activity (WM 266-4 [17])?
Answer: The Activity was 19.8%.

Question: And the Activity (WM 266-4 [18])?
Answer: The Activity was 21.4%.

Question: What about the Activity (WM 266-4 [19]) of the same molecule?
Answer: Its Activity is 39%.

Question: What about the Activity (WM 266-4 [20]) of the same molecule?
Answer: Its Activity is 15%.

Question: And the Activity (WM 266-4 [21])?
Answer: Its Activity is 35%.

Question: What about the Activity (WM 266-4 [22]) of the same molecule?
Answer: Its Activity is 36%.

Question: And the inhibition [23]?
Answer: Its inhibition is “Active”.

Question: And the TGI (WM 266-4 [24])?
Answer: The TGI was “Active”.

Source: ChEMBL document CHEMBL4190267, “Discovery of potent molecular chimera (CM358) to treat human metastatic melanoma” (Eur J Med Chem, 2017)
